Measured values from patent US10391080B2, “Ketorolac for the treatment of cancer” (Cipla Limited, priority 2016, dated 2019).
Read-outs that look alike come from different tables or passages of the source.

Experiments:
[1] = test system: ten selected renal cancer cell lines; experiment: In vitro 2D assay, CellTiter-Blue Cell Viability Assay, whole panel; assay type: cell-based, human; conditions: for IC50: Homo sapiens, geometric mean of ten cell lines, 96 h treatment
Experimental: The objective of this study was to investigate the in-vitro anticancer activity of ketorolac. Antitumor activity was assessed in ten selected renal cancer cell lines by using the CellTiter-Blue Cell Viability Assay. The human renal cancer cell lines RXF 1183L, RXF 1220L, RXF 1781L, RXF 393L, RXF 486L, RXF 786-0, RXF A-498, RXF ACHN, RXF Caki-1 and RXF SN12C were used. RXF 1183L, RXF 1220L, RXF 1781L, RXF 393L and RXF 486L were established at Oncotest from the corresponding human patient-derived xenograft. The cell lines 786-0, A-498, Caki-1 and SN12C were purchased from NCI (National Cancer Institute, Bethesda, Md., USA). ACHN was purchased from ECACC (European Collection of Cell Cultures, Salisbury, UK). Authenticity of cell lines was confirmed at the DSMZ by STR (short tandem repeat) analysis, a PCR based DNA-fingerprinting methodology.
Cell lines were routinely passaged once or twice weekly and maintained in culture for up to 20 passages. All cells were grown at 37° C. in a humidified atmosphere with 5% CO2 in RPMI 1640 medium (25 mM HEPES, with L-glutamine, #FG1385, Biochrom, Berlin, Germany) supplemented with 10% (v/v) fetal calf serum (Sigma, Taufkirchen, Germany) and 0.1 mg/mL gentamicin (Life Technologies, Karlsruhe, Germany).
Ketorolac was dissolved at a concentration of 60 mM in cell culture media. Starting with this stock solution, dilutions were made using cell culture media resulting in final test concentrations of 12000, 7800, 6000, 4200, 3000, 1800, 600, 420, 180, 60 μM. Precipitation was not observed.
The CellTiter-Blue Cell Viability Assay was used according to manufacturer's instructions. Briefly, cells were harvested from exponential phase cultures, counted and plated in 96-well flat-bottom microtiter plates at a cell density of 4,000-12,000 cells/well depending on the cell line's growth rate. […] Following an incubation period of up to four hours, fluorescence (FU) was measured by using the Enspire Multimode Plate Reader (excitation λ=531 nm, emission λ=615 nm). […]

[2] = test system: tumor cell lines of renal cancer; experiment: In vitro 3D combination study, clonogenic assay, both cell lines; assay type: cell-based; conditions: Homo sapiens, A498; compound alone, colony formation in soft agar, range over RXF 1183L and RXF A-498; read-out: Relative IC50, single agent
Experimental: (§1) The objective of this study was to assess anti-tumor efficacy of ketorolac in combination with sunitinib in a 5×5 matrix combination format against tumor cell lines of renal cancer using a clonogenic assay with image analysis as read-out.
(§2) The clonogenic assay was carried out in a 96 well plate format using ultra low attachment plates. For each test cells were prepared as described above, and assay plates were prepared as follows: each test well contained a layer of semi-solid medium with tumor cells (50 μl), and a second layer of medium supernatant with or without test compounds (100 μl). The cell layer consisted of 3×10^3 to 1×10^4 tumor cells per well, which were seeded in 50 μl/well cell culture medium (IMDM, supplemented with 20% (v/v) fetal calf serum, 0.01% (w/v) gentamicin, and 0.4% (w/v) agar). The soft agar layer was immediately covered with 90 μl of the same culture medium without agar. After 24 h the test compounds were added after serial dilution in IMDM and transfer in cell culture medium, and left on the cells for the duration of the experiment (continuous exposure, 100 μL total drug overlay). Every plate included six untreated control wells and drug-treated groups in a layout as shown above. […] At the time of maximum colony formation, counts were performed with an automatic image analysis system (Celllnsight NXT, Thermo Scientific). […]

RXF 1183L = experiment: In vitro 3D combination study, clonogenic assay, Bliss independence; assay type: cell-based, human; conditions: RXF 1183L cells seeded in soft agar, concentration-dependent
Experimental: as §1, §2

RXF A-498 = experiment: as above; assay type: cell-based, human; conditions: RXF A-498 cells seeded in soft agar, concentration-dependent
Experimental: as §1, §2

A498 cells = experiment: In vivo animal efficacy study, subcutaneous A498 tumor fragments; set-up: species or system female athymic nude mice
Experimental: 10 Healthy female athymic nude mice were recruited for the donor cell inoculation. Animals were subcutaneously injected at flank region with 10 million A498 cells suspended in 200 μl of media and matrigel. Animals were monitored for solid tumor growth. […] Tumors were fragmented in to ˜30 mg size. […] [table] The tumor sizes were measured weekly twice from the date of tumor appearance till the end of the experiment. Tumor size was measured by digital vernier caliper (MITUTOYO) by measuring length (L=longest axis) and width (W=shortest axis). Tumor Volume was calculated using the formula: […] Form the tumor volume data mean tumor volume and % tumor growth inhibition (% TGI) were calculated (SEM=standard error of mean).

Par-4 = experiment: PAR-4 activity, Western blot of cell supernatant and lysate; assay type: cell-based; conditions: normal mouse embryonic fibroblast cells, 25 μM, 18-21 h, cell supernatant, dose dependent
Experimental: Mouse embryonic fibroblast cells were harvested from exponential phase cultures. After a 24 h recovery period to allow the cells to resume exponential growth the cells were treated with 25 μM of ketorolac followed by further 18-21 h of incubation. Induction of Par-4 was checked in the cell supernatant and cell lysate by subjecting the samples to Western blot analysis with antibodies specific for Par-4. The samples were also subjected to SDS/PAGE and Coomassie blue staining to determine albumin levels in serum from the CM as another loading control.

[3] = Ketorolac 5 mg/kg p.o. q.d. × 21 (G3), day 1
[4] = Ketorolac 5 mg/kg p.o. q.d. × 21 (G3), day 6
[5] = Ketorolac 5 mg/kg p.o. q.d. × 21 (G3), day 9
[6] = Ketorolac 5 mg/kg p.o. q.d. × 21 (G3), day 13
[7] = Ketorolac 5 mg/kg p.o. q.d. × 21 (G3), day 16
[8] = Ketorolac 10 mg/kg p.o. q.d. × 21 (G4), day 1
[9] = Ketorolac 10 mg/kg p.o. q.d. × 21 (G4), day 6
[10] = Ketorolac 10 mg/kg p.o. q.d. × 21 (G4), day 9
[11] = Ketorolac 10 mg/kg p.o. q.d. × 21 (G4), day 13
[12] = Ketorolac 10 mg/kg p.o. q.d. × 21 (G4), day 16

O=C(c1ccccc1)c1ccc2n1CCC2C(=O)O (racemic) [Ketorolac, (±)-5-benzoyl-2,3-dihydro-1H-pyrrolizine-1-carboxylic acid]
IC50 ([1]; read-out: Absolute IC50, geometric mean): 3.24 mM
IC50 ([1]; read-out: Relative IC50, geometric mean): 3.76 mM
Activity in all cell lines tested (concentration-effect curves) ([1]; both runs, all cell lines tested): Concentration-dependent activity
IC50 [2]: 0.589 to 1.76 mM
Colony formation, single agent (RXF 1183L): inhibited colony formation
Colony formation, single agent (RXF A-498): inhibited colony formation
Mean Tumor Volume (A498 cells; [3]): 145.65 mm^3
Tumor Growth Inhibition (% TGI) (A498 cells; [3]): 1.29%
Mean Tumor Volume (A498 cells; [4]): 174.13 mm^3
Tumor Growth Inhibition (% TGI) (A498 cells; [4]): 47.54%
Mean Tumor Volume (A498 cells; [5]): 297.42 mm^3
Tumor Growth Inhibition (% TGI) (A498 cells; [5]): 35.87%
Mean Tumor Volume (A498 cells; [6]): 460.01 mm^3
Tumor Growth Inhibition (% TGI) (A498 cells; [6]): 25.45%
Mean Tumor Volume (A498 cells; [7]): 559.69 mm^3
Tumor Growth Inhibition (% TGI) (A498 cells; [7]): 41.77%
Mean Tumor Volume (A498 cells; Ketorolac 5 mg/kg p.o. q.d. × 21 (G3), day 20): 626.62 mm^3
Mean Tumor Volume (A498 cells; [8]): 145.79 mm^3
Tumor Growth Inhibition (% TGI) (A498 cells; [8]): 1.20%
Mean Tumor Volume (A498 cells; [9]): 168.10 mm^3
Tumor Growth Inhibition (% TGI) (A498 cells; [9]): 49.36%
Mean Tumor Volume (A498 cells; [10]): 223.78 mm^3
Tumor Growth Inhibition (% TGI) (A498 cells; [10]): 51.75%
Mean Tumor Volume (A498 cells; [11]): 215.58 mm^3
Tumor Growth Inhibition (% TGI) (A498 cells; [11]): 65.06%
Mean Tumor Volume (A498 cells; [12]): 300.44 mm^3
Tumor Growth Inhibition (% TGI) (A498 cells; [12]): 68.75%
Mean Tumor Volume (A498 cells; Ketorolac 10 mg/kg p.o. q.d. × 21 (G4), day 20): 336.27 mm^3
Induction of Par-4 secretion (Par-4): robust Par-4 secretion
